Assays:
[1] = tested on: NCM460 cells; assay: Time-dependent induction of apoptosis, Caspase-3/7 Green ReadyProbes fluorescence microscopy; type: cell-based, human; conditions: NCM460, 2 μM, Caspase-3/7 Green Reagent
Procedure: (§1) B from 20.1 to 25 min and returned to initial conditions and equilibrated for 3 minutes.
(§2) The flow rate was 0.4 mL/min and the injection volume was 2 µL. The UPLC-QTOF-MS chromatograms of 1, 3, 4 and solvent control in acetonitrile were also recorded for the interpretation of UPLC-QTOF-MS chromatograms of the cell lysate.
(§3) Cellular uptake experiments. HCT116, A2780 and A2780adr (2×10 5 cells), and MIHA and NCM460 (3.5×10 5 cells) cells were grown on 6-well plates at 37 °C under an atmosphere of 5% CO2 for 48 h. The culture medium was then removed, washed with PBS solution, and incubated with culture medium containing nanostructures of 1 […]
Au1a (2 µM; with 1 vol% DMSO). At a predetermined time, the culture medium was removed and washed with PBS solution for three times. […] An aliquot of the cell suspension was subjected to Bio-rad protein assay with a microtitre plate reader at the absorbance at 595 nm, using bovine serum albumin as the protein standard. […] The solution mixture was heated at 65 °C with shaking overnight, and the gold content was determined by ICP-MS. […]
(§4) then removed and washed with PBS solution. The cells were then incubated with culture medium containing nanostructures of 1 (2 µM) and CellEvent Caspase-3/7 Green ReadyProbes Reagent (30 µL), or Au1a (2 µM; with 1 vol% DMSO) and CellEvent Caspase-3/7 Green ReadyProbes Reagent (30 µL) at 37 °C under an atmosphere of 5% CO2. […]

[2] = tested on: A2780adr cells; assay: Cellular uptake, gold content by ICP-MS; type: in vitro ADME, human; conditions: 2 μM, 37 °C
Procedure: The uptake of 1 and 3, and Au1a by cancer cells and non-tumorigenic cells was examined in terms of the gold content in the cell lysates using ICP-MS.
as §1, §2
Cellular uptake experiments. HCT116, A2780 and A2780adr (2×10 5 cells), and MIHA and NCM460 (3.5×10 5 cells) cells were grown on 6-well plates at 37 °C under an atmosphere of 5% CO2 for 48 h. […]
Au1a (2 µM; with 1 vol% DMSO). […] An aliquot of the cell suspension was subjected to Bio-rad protein assay with a microtitre plate reader at the absorbance at 595 nm, using bovine serum albumin as the protein standard. […] The solution mixture was heated at 65 °C with shaking overnight, and the gold content was determined by ICP-MS. […]
as §4

[3] = tested on: HCT116 cells; assay: Time-dependent induction of apoptosis, Caspase-3/7 Green ReadyProbes fluorescence microscopy; type: cell-based, human; conditions: HCT116, 2 μM, Caspase-3/7 Green Reagent
Procedure: as §1, §2, §3
Au1a (2 µM; with 1 vol% DMSO). At a predetermined time, the culture medium was removed and washed with PBS solution for three times. The cells were then harvested and dispersed in ice-cold water. An aliquot of the cell suspension was subjected to Bio-rad protein assay with a microtitre plate reader at the absorbance at 595 nm, using bovine serum albumin as the protein standard. […] The solution mixture was heated at 65 °C with shaking overnight, and the gold content was determined by ICP-MS. […]
then removed and washed with PBS solution. The cells were then incubated with culture medium containing nanostructures of 1 (2 µM) and CellEvent Caspase-3/7 Green ReadyProbes Reagent (30 µL), or Au1a (2 µM; with 1 vol% DMSO) and CellEvent Caspase-3/7 Green ReadyProbes Reagent (30 µL) at 37 °C under an atmosphere of 5% CO2. Fluorescence images at different time intervals were recorded by the fluorescence microscope without washing the cells. […]
once every 2–3 days. The tumor volume was calculated by the equation: Volume (mm3) = l×w2/2, where l and w were the length and width of the tumor. At the end of the treatment, the nude mice were sacrificed and the tumor weight was measured. […]
At a predetermined time, the culture medium was removed and washed with PBS solution for three times. […] An aliquot of the cell suspension was subjected to Bio-rad protein assay with a microtitre plate reader at the absorbance at 595 nm, using bovine serum albumin as the protein standard. […]

[4] = tested on: L02; assay: In vitro cytotoxicity, MTT assay; type: cell-based, human; conditions: 72 h
Procedure: (§5) page 7: The gold content of the nanocomposites was determined by dissolving the nanocomposites in conc. HNO3 / conc. HCl solution mixture (9:1, v/v; 30 µL), followed by ICP-MS analysis. […] The nanocomposite (10 µL) was dissolved in acetonitrile (90 µL), and subjected to gentle shaking overnight. The solution mixture was then dried under vacuum, and re- dispersed in 0.1 vol% formic acid in water/acetonitrile (7/3, v/v; 1 mL) solution mixture. […] The mobile phase was 0.1 vol% formic acid in water/acetonitrile (7:3, v/v) solution mixture. […] The cells were then treated with a serial concentration of gold(III) complexes and incubated at 37 °C under a 5% CO2 atmosphere for 72 h. […] After incubation for 72 h, MTT in PBS solution (5 mg/mL, 10 μL) was added to each well. The plates were incubated at 37 °C under a 5% CO2 atmosphere for another 4 h, and the cells were lysed by the addition of SDS solution (10%, w/w) with 0.01 M HCl (100 μL). After incubation in dark at 37 °C overnight, the cell viability after treatment was determined by a microtitre plate reader monitoring at the absorbance at 590 nm, P.7 page 8: which reflected the amount of blue formazan formed. IC50 values were then determined by CompuSyn S6 from three independent measurements. Study on the release of hydrolyzed product from 1 and 2 in aqueous buffer solutions by ICP-MS. […] At a predetermined time, an aliquot of solution was removed and dissolved in HNO3/HCl solution mixture (9:1, v/v; volume of aliquot: volume of acid mixture = 1:3). The solution mixture was heated at 65 °C with shaking overnight, and the gold content was determined by ICP-MS from three independent aliquots. […] 37 °C for 24 h. […] Analysis of cell lysate of HCT116 cells treated with complexes 1 and 3 by UPLC- QTOF-MS. […] All the cells were harvested, washed with PBS solution for three times and dispersed in ice-cold water. The cell suspension was then added to ice-cold acetonitrile (1:3, v/v), vortexed for 5 min, and centrifuged at 10,000 rpm at 4 °C. The supernatant was collected, dried under vacuum and the solid was re-dissolved in acetonitrile (HPLC grade) for UPLC- QTOF-MS experiments. The mobile phase was a mixture of 0.1% formic acid in water (phase A) and 0.1% formic acid in acetonitrile (phase B). […] P.46

[5] = tested on: CHEM-5; assay: In vitro cytotoxicity, MTT assay; type: cell-based, human; conditions: CHEM-5, MTT assay, 72 h
Procedure: as §5

| Molecule | incubation time at which induction of apoptosis was apparent [1] | incubation time after which the amount in A2780adr cells decreases [2] | incubation time at which induction of apoptosis was apparent [3] | IC50 [4] | IC50 [5] |
| --- | --- | --- | --- | --- | --- |
| C1=Cc2nc1c(-c1ccccc1)c1ccc([n-]1)c(-c1ccccc1)c1nc(c(-c3ccccc3)c3ccc([n-]3)c2-c2ccccc2)C=C1.[Au+3].[Cl-] [Au1a, [Au(TPP)]Cl, reference compound] | 20 h | 0.5 h | 12 h | – | – |
| COC(=O)c1ccc(C2=C3C=CC(=N3)C(c3ccccc3)=c3ccc4[n]3[Au+][n]3c(ccc32)C(c2ccccc2)=C2C=CC(=N2)C=4c2ccccc2)cc1.[Cl-] [Compound 3, [Au(TPP–COOCH3)]^+] | – | 0.75 h | – | 0.2 ± 0.05 µM | 3.5 ± 0.03 µM |
| [Au(TPP–COO–PEG5000–OCH3)]Cl [Compound 1] | no significant apoptosis | – | 15 h | 3.8 ± 0.1 µM | 11.3 ± 0.05 µM |
